# In paper PMC12687424, “Penetrant PKCβ mutation in ATLL displays a mixed gain-of-function” (Biochemical Journal, 2025):
# Columns and labels:
# [1] = target: D427N PKCβII catalytic domain; test: Fluorescence polarisation binding of fluorescein-PSS peptide, D427N; conditions: catalytic domains
# Experimental: Figure 3 D427N PKCβII has an altered substrate repertoire in vitro . A–D – Representative titration curves from assays of WT or D427N PKCβII catalytic domains with excess ATP and titrations of either histone type III-S, MBP, PSS peptide or BTK S180 peptide. Specific activity in nmol/min/mg was calculated using an ADP standard curve. Error bars indicate the mean ± SD from three technical replicates. E and F – Km and Vmax values of WT and D427N PKCβII catalytic domains for each substrate, obtained from Michaelis–Menten fits of titration curves in (A-D). Error bars indicate the mean ± SD from three independent assays (*=P<0.05, **=P<0.01 versus WT by t-test with Holm–Šídák correction for multiple comparisons). G – Representative binding curves of anisotropy vs protein concentration when WT or D427N PKCβII catalytic domains were titrated into fluorescein–PSS peptide; KD values are shown ± the error of the fit. […] H – Differential heat map of WT and D427N PKCβII activity towards a PamChip microarray, calculated from log2 fold change values relative to a no ATP control array. […] The measured ligand is the PSS peptide, and WT and D427N are protein variants.
# Fluorescence polarisation (FP) experiments were performed using an FP-8500 spectrofluorometer (Jasco). […] Equilibrium dissociation constants were determined by plotting anisotropy as a function of PKCβII catalytic domain concentration. […]
# [2] = system: D427N PKCβII catalytic domain; test: ADP-Glo in vitro kinase assay with ATP-competitive inhibitors, D427N compared with WT; assay type: biochemical; conditions: 50 μM ATP, 200 μM PSS peptide; IC50 of D427N higher than WT
# Experimental: Given the proximity of the mutation to the nucleotide pocket of the kinase, we compared the potency of three ATP-competitive inhibitors in WT and D427N PKCβII to assess if existing PKC inhibitors could be used to target the mutant. We assayed WT and D427N PKCβII catalytic domains at 50 μM ATP with one indolocarbazole inhibitor (UCN-01) and two bisindolylmaleimide inhibitors (BIM-1 and the PKCβ-specific inhibitor ruboxistaurin) (Figure 5A–C). […] These differences were 17-fold for ruboxistaurin, 9-fold for BIM-1 and 25-fold for UCN-01.
# Figure 5 Pharmacology of D427N PKCβII. A–C – Representative dose-response curves when WT and D427N PKCβII catalytic domains were assayed with the indicated inhibitors, 50 μM ATP and 200 μM PSS peptide. ADP produced in the assays was measured by luminescence and converted to specific activity using an ADP standard curve. Error bars indicate the mean ± SD from three technical replicates. D – IC50 values obtained from fitting curves in (A-C). Error bars indicate the mean ± SD from three independent dose-response assays (*=P<0.05, **=P<0.01 versus WT by t-test with Holm–Šídák correction for multiple comparisons). E,F – Orthogonal views of Ruboxistaurin (pink) in the PKCβII nucleotide-binding pocket (cyan). A σA-weighted |2Fo-Fc| map is shown contoured at 1.5 σ. The location of the N427 side chain is indicated. Figure was generated using UCSF ChimeraX.
# Kinase assays were carried out in white, 384-well OptiPlates (PerkinElmer) using an ADP-Glo kit (Promega) on a scale of […] for the kinase reaction. Kinase was diluted in assay buffer (40 mM Tris-HCl pH 7.5, 20 mM MgCl2, 0.1 mg/ml BSA (NEB, #B9000S), 1 mM DTT) and added to the plate (typically 0.5–1 ng/well). The assay was started by adding the substrates at a final concentration of 50–300 μM [ATP and either histone type III-S (Sigma, #H5505), MBP (Sigma, #M1891), or a peptide]. […] Luminescence was recorded using an EnSight MultiMode Plate Reader (PerkinElmer), and the slope of a standard curve was used to convert luminescence values to specific activity in nmol ADP/min/mg.
Compound,binding affinity of D427N PKCβII relative to WT (from KD values) [1],"difference in IC50, D427N PKCβII catalytic domain versus WT [2] [fold]"
CC(C)C[C@H](NC(=O)[C@H](CO)NC(=O)CNC(=O)[C@H](CCCCN)NC(=O)[C@H](CCCNC(=N)N)NC(=O)[C@H](C)NC(=O)[C@H](Cc1ccccc1)NC(=O)[C@H](CCCNC(=N)N)NC(=O)[C@@H](NC(=O)[C@@H](NC(=O)[C@H](CO)NC(=O)[C@H](CCC(=O)O)NC(=O)c1ccc2c(c1)C(=O)OC21c2ccc(O)cc2Oc2cc(O)ccc21)[C@@H](C)O)C(C)C)C(=O)N[C@@H](CCCNC(=N)N)C(=O)N[C@@H](CCC(N)=O)C(=O)N[C@@H](CCCCN)C(=O)N[C@@H](CC(N)=O)C(=O)N[C@H](C(=O)N[C@@H](Cc1c[nH]cn1)C(N)=O)C(C)C,two-fold weaker affinity than WT,–
CN(C)CCCn1cc(C2=C(c3c[nH]c4ccccc34)C(=O)NC2=O)c2ccccc21 [BIM-1],–,9
CNC1CC2OC(C)(C1OC)n1c3ccccc3c3c4c(c5c6ccccc6n2c5c31)C(=O)NC4O (stereo not shown) [UCN-01],–,25
CN(C)C[C@@H]1CCn2cc(c3ccccc32)C2=C(C(=O)NC2=O)c2cn(c3ccccc23)CCO1 [ruboxistaurin],–,17
